# Results published in patent US20240279283A1, “CYCLIC PEPTIDE ANTIBIOTICS” (priority 2021, published 2024).
# Bridge positions count the residues as written; N and C are the ends. Square brackets hold non-standard residues; d marks the D form. Peptide text beside a SMILES is read from it. NMePhe(4-Cl) = CN[C@@H](Cc1ccc(Cl)cc1)C(=O)O; 1Nal = N[C@@H](Cc1cccc2ccccc12)C(=O)O; His(π-Me) = Cn1cncc1C[C@H](N)C(=O)O; NMeY = CN[C@@H](Cc1ccc(O)cc1)C(=O)O; NMeR = CN[C@@H](CCCNC(=N)N)C(=O)O; aThr = C[C@H](O)[C@H](N)C(=O)O; Abu = CC[C@H](N)C(=O)O; Aib = CC(C)(N)C(=O)O
# Columns and labels:
# Assay type in all cases: cell-based
# Conditions in all cases: LB broth, 5×10^5 CFU/ml, 37° C., 18 hours, scored by eye
# [1] = test system: K. pneumoniae ATCC43816; assay: Minimum Inhibitory Concentration (MIC) determination, K. pneumoniae ATCC43816; design: unit not given here
# Method: (§1) MICs were determined by performing two-fold serial dilutions of peptides in LB broth to a final volume of 0.1 ml in round-bottom 96-well assay plates (Corning Life Sciences No 3788). Peptides were initially resuspended in 100% DMSO to 10 mM and subsequently diluted in LB medium to the appropriate concentration. Each well was inoculated with 5×10^5 CFU/ml of the screening stain and incubated at 37° C. without agitation for 18 hours. Plates were scored by eye, and the lowest compound concentration preventing visible growth was determined to be the MIC.
# [2] = test system: E. coli 25922 IMP; assay: Minimum Inhibitory Concentration (MIC) determination, E. coli 25922 IMP
# Summary of the method: (§2)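 Peptides, diluted two-fold in LB broth from 10 mM DMSO stocks, were inoculated with 5×10^5 CFU/ml of each strain. Incubation was 18 h at 37 °C without shaking. MIC is the lowest concentration preventing visible growth, scored by eye.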
# [3] = test system: E. coli BW25113; assay: Minimum Inhibitory Concentration (MIC) determination, E. coli BW25113; design: unit not given here
# Summary of the method: as §2
# [4] = test system: E. coli 25922; assay: Minimum Inhibitory Concentration (MIC) determination, E. coli 25922; design: unit not given here
# Summary of the method: as §2
# [5] = test system: E. cloacae ATCC222; assay: Minimum Inhibitory Concentration (MIC) determination, E. cloacae ATCC222; design: unit not given here
# Method: as §1
structure (smiles),measurement,setting,value
CC[C@@H]1NC(=O)[C@H](Cc2ccccc2)NC(=O)CSC[C@@H](C(=O)NCC(N)=O)NC(=O)[C@H](Cc2cncn2C)NC(=O)[C@H](CCCNC(=N)N)NC(=O)[C@H](Cc2c[nH]cn2)NC(=O)[C@H](Cc2ccc(O)cc2)N(C)C(=O)[C@H](CCCNC(=N)N)NC(=O)[C@H]([C@H](C)O)NC(=O)CNC(=O)[C@H](Cc2c[nH]cn2)NC(=O)[C@H](Cc2cccc3ccccc23)NC1=O [Compound 31] ({CH2CO}-F[Abu][1Nal]HG[aThr]R[NMeY]HR[His(π-Me)]CG-NH2; thioether N-12),MIC K. pneumoniae ATCC43816 Wuxi::MIC,[1],50
same,MIC E. coli 25922 IMP WUXI::MIC,[2],0.016
same,MIC E. coli BW25113 WUXI::MIC,[3],50
same,MIC E. coli 25922 WUXI::MIC,[4],25
same,MIC E. cloacae ATCC222 WUXI::MIC,[5],6.3
CC[C@@H]1NC(=O)[C@H](Cc2ccccc2)NC(=O)CSC[C@@H](C(=O)NCC(N)=O)NC(=O)[C@H](Cc2cncn2C)NC(=O)[C@H](CCCNC(=N)N)NC(=O)[C@H](Cc2c[nH]cn2)NC(=O)[C@H](Cc2ccc(Cl)cc2)N(C)C(=O)[C@H](CCCNC(=N)N)NC(=O)[C@H](CO)NC(=O)CNC(=O)[C@H](Cc2c[nH]cn2)NC(=O)[C@H](Cc2cccc3ccccc23)NC1=O [Compound 33] ({CH2CO}-F[Abu][1Nal]HGSR[NMePhe(4-Cl)]HR[His(π-Me)]CG-NH2; thioether N-12),MIC K. pneumoniae ATCC43816 Wuxi::MIC,[1],25
same,MIC E. coli 25922 IMP WUXI::MIC,[2],0.0005
same,MIC E. coli BW25113 WUXI::MIC,[3],25
same,MIC E. coli 25922 WUXI::MIC,[4],13
same,MIC E. cloacae ATCC222 WUXI::MIC,[5],1.6
CC[C@@H]1NC(=O)[C@H](Cc2ccccc2)NC(=O)CSC[C@@H](C(=O)NCC(N)=O)NC(=O)[C@H](Cc2cncn2C)NC(=O)[C@H](CCCNC(=N)N)N(C)C(=O)[C@H](Cc2c[nH]cn2)NC(=O)[C@H](Cc2ccc(O)cc2)N(C)C(=O)[C@H](CCCNC(=N)N)NC(=O)[C@H](CO)NC(=O)CNC(=O)[C@H](Cc2c[nH]cn2)NC(=O)[C@H](Cc2cccc3ccccc23)NC1=O [Compound 34] ({CH2CO}-F[Abu][1Nal]HGSR[NMeY]H[NMeR][His(π-Me)]CG-NH2; thioether N-12),MIC K. pneumoniae ATCC43816 Wuxi::MIC,[1],25
same,MIC E. coli 25922 IMP WUXI::MIC,[2],0.063
same,MIC E. coli BW25113 WUXI::MIC,[3],100
same,MIC E. coli 25922 WUXI::MIC,[4],41.667
same,MIC E. cloacae ATCC222 WUXI::MIC,[5],6.3
CC[C@@H]1NC(=O)[C@H](Cc2ccccc2)NC(=O)CSC[C@@H](C(=O)NCC(N)=O)NC(=O)[C@H](Cc2cncn2C)NC(=O)[C@H](CCCNC(=N)N)NC(=O)[C@H](C)NC(=O)[C@H](Cc2ccc(O)cc2)N(C)C(=O)[C@H](CCCNC(=N)N)NC(=O)[C@H](CO)NC(=O)CNC(=O)[C@H](Cc2c[nH]cn2)NC(=O)[C@H](Cc2cccc3ccccc23)NC1=O [Compound 37] ({CH2CO}-F[Abu][1Nal]HGSR[NMeY]AR[His(π-Me)]CG-NH2; thioether N-12),MIC K. pneumoniae ATCC43816 Wuxi::MIC,[1],100
same,MIC E. coli 25922 IMP WUXI::MIC,[2],25
same,MIC E. coli BW25113 WUXI::MIC,[3],100
same,MIC E. coli 25922 WUXI::MIC,[4],100
same,MIC E. cloacae ATCC222 WUXI::MIC,[5],100
"CC[C@@H]1NC(=O)[C@H](Cc2ccccc2)NC(=O)CSC[C@@H](C(=O)NCC(N)=O)NC(=O)[C@H](C)NC(=O)[C@H](CCCNC(=N)N)NC(=O)[C@H](Cc2c[nH]cn2)NC(=O)[C@H](Cc2ccc(O)cc2)N(C)C(=O)[C@H](CCCNC(=N)N)NC(=O)[C@H](CO)NC(=O)CNC(=O)[C@H](Cc2c[nH]cn2)NC(=O)[C@H](Cc2cccc3ccccc23)NC1=O [Compound 39, (3R,6S,9S,12S,15S,18S,21S,27S,30S, 33S,36S)-N-(2-amino-2-oxo-ethyl)-36-benzyl-33-ethyl-9,18-bis(3-guanidinopropyl)-21-(hydroxymethyl)-15-[(4-hydroxyphenyl)methyl]-12,27-bis(1H-imidazol-4-ylmethyl)-6,16-dimethyl-30-(1-naphthylmethyl)-5,8,11,14,17,20,23,26,29,32,35,38-dodecaoxo-1-thia-4,7,10,13,16,19,22,25,28,31,34,37-dodecazacyclononatriacontane-3-carboxamide] ({CH2CO}-F[Abu][1Nal]HGSR[NMeY]HRACG-NH2; thioether N-12)",MIC K. pneumoniae ATCC43816 Wuxi::MIC,[1],100
same,MIC E. coli 25922 IMP WUXI::MIC,[2],6.3
same,MIC E. coli BW25113 WUXI::MIC,[3],100
same,MIC E. coli 25922 WUXI::MIC,[4],100
same,MIC E. cloacae ATCC222 WUXI::MIC,[5],100
CC[C@H](C)[C@@H]1NC(=O)[C@H]([C@@H](C)O)NC(=O)[C@H](Cc2cncn2C)NC(=O)[C@H](Cc2ccccc2)NC(=O)CSC[C@@H](C(=O)NCC(N)=O)NC(=O)[C@H](Cc2ccc(O)cc2)NC(=O)[C@H](Cc2c[nH]c3ccccc23)NC(=O)[C@H](Cc2ccc(O)cc2)NC(=O)[C@H](Cc2cncn2C)NC(=O)[C@H](Cc2ccccc2)NC(=O)C(C)(C)NC(=O)[C@H](CCCNC(=N)N)NC(=O)[C@H](CCCCN)NC(=O)[C@H](CCCNC(=N)N)NC1=O [Compound 51] ({CH2CO}-F[His(π-Me)]TIRKR[Aib]F[His(π-Me)]YWYCG-NH2; thioether N-14),MIC K. pneumoniae ATCC43816 Wuxi::MIC,[1],>32
same,MIC E. coli 25922 IMP WUXI::MIC,[2],0.5
same,MIC E. coli BW25113 WUXI::MIC,[3],8
same,MIC E. coli 25922 WUXI::MIC,[4],8
same,MIC E. cloacae ATCC222 WUXI::MIC,[5],>32
